# Experimental data reported in patent US7396837B2, “Antitumoral analogs of lamellarins” (Pharma Mar, S.A.U., priority 2002, dated 2008).
# Assays:
# Type in all cases: cell-based
# A-549 = test: SRB colorimetric cell growth inhibition assay, A-549; details: A-549; for GI50: GI=growth inhibition, read-out: GI50 A-549; for CC50: cell killing (cytotoxic effect), read-out: LC50 A-549; for TGI A-549: total growth inhibition (cytostatic effect)
# Summary of the method: (§1)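 Human tumour cells continuously exposed to compound in 96-well culture; growth and viability quantified colorimetrically by sulforhodamine B staining. Mean ± SD from triplicate wells; GI (growth inhibition), TGI (total growth inhibition, cytostatic) and LC (cell killing, cytotoxic) parameters derived.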
# PANC-1 = test: SRB colorimetric cell growth inhibition assay, PANC-1; details: PANC-1; for GI50: GI=growth inhibition, read-out: GI50 PANC-1; for CC50: cell killing (cytotoxic effect), read-out: LC50 PANC-1; for TGI PANC-1: total growth inhibition (cytostatic effect)
# Summary of the method: as §1
# K-562 = test: SRB colorimetric cell growth inhibition assay, K-562; details: K-562; for GI50: GI=growth inhibition, read-out: GI50 K-562; for CC50: cell killing (cytotoxic effect), read-out: LC50 K-562; for TGI K-562: total growth inhibition (cytostatic effect)
# Summary of the method: as §1
# HeLa-APL = test: SRB colorimetric cell growth inhibition assay, HeLa-APL (aplidine resistant); details: HELA-APL; for GI50: GI=growth inhibition, read-out: GI50 HELA-APL; for CC50: cell killing (cytotoxic effect), read-out: LC50 HELA-APL; for TGI HELA-APL: total growth inhibition (cytostatic effect)
# Summary of the method: as §1
# LNCaP = test: SRB colorimetric cell growth inhibition assay, LNCaP; details: LN-caP; for GI50: GI=growth inhibition, read-out: GI50 LN-caP; for CC50: cell killing (cytotoxic effect), read-out: LC50 LN-caP; for TGI LN-caP: total growth inhibition (cytostatic effect)
# Summary of the method: as §1
# HT-29 = test: SRB colorimetric cell growth inhibition assay, HT-29; details: HT-29; for GI50: GI=growth inhibition, read-out: GI50 HT-29; for CC50: cell killing (cytotoxic effect), read-out: LC50 HT-29; for TGI HT-29: total growth inhibition (cytostatic effect)
# Summary of the method: as §1
# IGROV-ET = test: SRB colorimetric cell growth inhibition assay, IGROV-ET (ET-743 resistant); details: IGROV-ET; for GI50: GI=growth inhibition, read-out: GI50 IGROV-ET; for CC50: cell killing (cytotoxic effect), read-out: LC50 IGROV-ET; for TGI IGROV-ET: total growth inhibition (cytostatic effect)
# Summary of the method: as §1
# LoVo-Dox = test: SRB colorimetric cell growth inhibition assay, LoVo-Dox (MDR); details: LOVO-DOX; for GI50: GI=growth inhibition, read-out: GI50 LOVO-DOX; for CC50: cell killing (cytotoxic effect), read-out: LC50 LOVO-DOX; for TGI LOVO-DOX: total growth inhibition (cytostatic effect)
# Summary of the method: as §1
# DU-145 = test: SRB colorimetric cell growth inhibition assay, DU-145; details: DU-145; for GI50: GI=growth inhibition, read-out: GI50 DU-145; for CC50: cell killing (cytotoxic effect), read-out: LC50 DU-145; for TGI DU-145: total growth inhibition (cytostatic effect)
# Summary of the method: as §1
# LoVo = test: SRB colorimetric cell growth inhibition assay, LoVo; details: LOVO; for GI50: GI=growth inhibition, read-out: GI50 LOVO; for CC50: cell killing (cytotoxic effect), read-out: LC50 LOVO; for TGI LOVO: total growth inhibition (cytostatic effect)
# Summary of the method: as §1
# IGROV = test: SRB colorimetric cell growth inhibition assay, IGROV; details: IGROV; for GI50: GI=growth inhibition, read-out: GI50 IGROV; for CC50: cell killing (cytotoxic effect), read-out: LC50 IGROV; for TGI IGROV: total growth inhibition (cytostatic effect)
# Summary of the method: as §1
# SK-MEL-28 = test: SRB colorimetric cell growth inhibition assay, SK-MEL-28; details: MEL-28; for GI50: GI=growth inhibition, read-out: GI50 MEL-28; for CC50: cell killing (cytotoxic effect), read-out: LC50 MEL-28; for TGI MEL-28: total growth inhibition (cytostatic effect)
# Summary of the method: as §1
# SK-BR-3 = test: SRB colorimetric cell growth inhibition assay, SK-BR-3; details: SK-BR-3; for GI50: GI=growth inhibition, read-out: GI50 SK-BR-3; for CC50: cell killing (cytotoxic effect), read-out: LC50 SK-BR-3; for TGI SK-BR-3: total growth inhibition (cytostatic effect)
# Summary of the method: as §1
# HeLa = test: SRB colorimetric cell growth inhibition assay, HeLa; details: HELA; for GI50: GI=growth inhibition, read-out: GI50 HELA; for CC50: cell killing (cytotoxic effect), read-out: LC50 HELA; for TGI HELA: total growth inhibition (cytostatic effect)
# Summary of the method: as §1
structure (smiles),measurement,setting,value
COc1cc2c(cc1O)oc(=O)c1c2c(-c2ccc(OC(=O)[C@H](C)N)c(OC)c2)c2c3cc(OC)c(O)cc3ccn21.Cl [Compound 238],GI50,A-549,45.8 nM
same,CC50,A-549,16500 nM
same,TGI A-549,A-549,4.38E−07 Molar
same,GI50,PANC-1,25.4 nM
same,CC50,PANC-1,1610 nM
same,TGI PANC-1,PANC-1,2.50E−07 Molar
same,GI50,K-562,43.3 nM
same,CC50,K-562,1200 nM
same,TGI K-562,K-562,2.47E−07 Molar
same,GI50,HeLa-APL,157 nM
same,CC50,HeLa-APL,1760 nM
same,TGI HELA-APL,HeLa-APL,5.16E−07 Molar
same,GI50,LNCaP,2130 nM
same,CC50,LNCaP,16500 nM
same,TGI LN-caP,LNCaP,1.65E−05 Molar
same,GI50,HT-29,2650 nM
same,CC50,HT-29,16500 nM
same,TGI HT-29,HT-29,1.06E−05 Molar
same,GI50,IGROV-ET,41.3 nM
same,CC50,IGROV-ET,16500 nM
same,TGI IGROV-ET,IGROV-ET,1.44E−07 Molar
same,GI50,LoVo-Dox,2260 nM
same,CC50,LoVo-Dox,16500 nM
same,TGI LOVO-DOX,LoVo-Dox,8.98E−07 Molar
same,GI50,DU-145,45.8 nM
same,CC50,DU-145,16500 nM
same,TGI DU-145,DU-145,9.65E−08 Molar
same,GI50,LoVo,57 nM
same,CC50,LoVo,1290 nM
same,TGI LOVO,LoVo,2.26E−07 Molar
same,GI50,IGROV,79.9 nM
same,CC50,IGROV,1260 nM
same,TGI IGROV,IGROV,2.82E−07 Molar
same,GI50,SK-MEL-28,52.6 nM
same,CC50,SK-MEL-28,12500 nM
same,TGI MEL-28,SK-MEL-28,3.51E−07 Molar
same,GI50,SK-BR-3,153 nM
same,CC50,SK-BR-3,16500 nM
same,TGI SK-BR-3,SK-BR-3,1.61E−06 Molar
same,GI50,HeLa,52.2 nM
same,CC50,HeLa,1240 nM
same,TGI HELA,HeLa,1.31E−07 Molar
COc1cc(-c2c3c4cc(OC)c(OC(=O)[C@H](C)N)cc4oc(=O)c3n3ccc4cc(O)c(OC)cc4c23)ccc1O.Cl [Compound 240],GI50,A-549,126 nM
same,CC50,A-549,1510 nM
same,TGI A-549,A-549,4.70E−07 Molar
same,GI50,PANC-1,70.5 nM
same,CC50,PANC-1,8860 nM
same,TGI PANC-1,PANC-1,6.82E−07 Molar
same,GI50,K-562,124 nM
same,CC50,K-562,2090 nM
same,TGI K-562,K-562,4.50E−07 Molar
same,GI50,HeLa-APL,341 nM
same,CC50,HeLa-APL,7610 nM
same,TGI HELA-APL,HeLa-APL,1.40E−06 Molar
same,GI50,LNCaP,4090 nM
same,CC50,LNCaP,16500 nM
same,TGI LN-caP,LNCaP,1.65E−05 Molar
same,GI50,HT-29,1640 nM
same,CC50,HT-29,16500 nM
same,TGI HT-29,HT-29,1.59E−05 Molar
same,GI50,IGROV-ET,82.4 nM
same,CC50,IGROV-ET,12900 nM
same,TGI IGROV-ET,IGROV-ET,3.66E−07 Molar
same,GI50,LoVo-Dox,461 nM
same,CC50,LoVo-Dox,16500 nM
same,TGI LOVO-DOX,LoVo-Dox,1.15E−06 Molar
same,GI50,DU-145,60.6 nM
same,CC50,DU-145,16500 nM
same,TGI DU-145,DU-145,1.34E−07 Molar
same,GI50,LoVo,170 nM
same,CC50,LoVo,1520 nM
same,TGI LOVO,LoVo,5.09E−07 Molar
same,GI50,IGROV,136 nM
same,CC50,IGROV,3640 nM
same,TGI IGROV,IGROV,5.22E−07 Molar
same,GI50,SK-MEL-28,99.7 nM
same,CC50,SK-MEL-28,1440 nM
same,TGI MEL-28,SK-MEL-28,3.81E−07 Molar
same,GI50,SK-BR-3,59.3 nM
same,CC50,SK-BR-3,16500 nM
same,TGI SK-BR-3,SK-BR-3,3.43E−07 Molar
same,GI50,HeLa,57.5 nM
same,CC50,HeLa,1400 nM
same,TGI HELA,HeLa,1.49E−07 Molar
